Assay results published in article PMC11341970 (RSC Advances, 2024).
Read-outs that look alike come from different tables or passages of the source.

Assays:
hBACE 1 = hBACE 1 (Homo sapiens, UniProt P56817); experiment: BACE 1 inhibition assay; type: biochemical
EeAChE = EeAChE (Electrophorus electricus, UniProt O42275); experiment: AChE inhibition assay; type: biochemical
Chain of EeAChE (O42275 24-633): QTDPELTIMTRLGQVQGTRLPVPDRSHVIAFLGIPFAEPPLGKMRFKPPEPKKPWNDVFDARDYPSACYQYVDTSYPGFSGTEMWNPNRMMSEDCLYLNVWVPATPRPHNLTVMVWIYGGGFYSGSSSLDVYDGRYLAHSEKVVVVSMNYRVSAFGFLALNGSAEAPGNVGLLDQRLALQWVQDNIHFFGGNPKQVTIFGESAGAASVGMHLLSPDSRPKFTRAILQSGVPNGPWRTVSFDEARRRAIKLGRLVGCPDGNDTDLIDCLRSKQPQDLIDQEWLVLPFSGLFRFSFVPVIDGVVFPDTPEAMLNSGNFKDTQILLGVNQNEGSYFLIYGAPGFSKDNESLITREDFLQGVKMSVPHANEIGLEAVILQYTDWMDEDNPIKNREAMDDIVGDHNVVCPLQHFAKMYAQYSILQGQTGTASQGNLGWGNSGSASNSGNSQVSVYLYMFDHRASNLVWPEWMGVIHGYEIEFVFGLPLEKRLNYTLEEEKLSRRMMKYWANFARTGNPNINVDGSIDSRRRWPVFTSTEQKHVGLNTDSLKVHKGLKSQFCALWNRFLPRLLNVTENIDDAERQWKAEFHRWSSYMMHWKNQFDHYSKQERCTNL

Chain of hBACE 1 (P56817 46-501): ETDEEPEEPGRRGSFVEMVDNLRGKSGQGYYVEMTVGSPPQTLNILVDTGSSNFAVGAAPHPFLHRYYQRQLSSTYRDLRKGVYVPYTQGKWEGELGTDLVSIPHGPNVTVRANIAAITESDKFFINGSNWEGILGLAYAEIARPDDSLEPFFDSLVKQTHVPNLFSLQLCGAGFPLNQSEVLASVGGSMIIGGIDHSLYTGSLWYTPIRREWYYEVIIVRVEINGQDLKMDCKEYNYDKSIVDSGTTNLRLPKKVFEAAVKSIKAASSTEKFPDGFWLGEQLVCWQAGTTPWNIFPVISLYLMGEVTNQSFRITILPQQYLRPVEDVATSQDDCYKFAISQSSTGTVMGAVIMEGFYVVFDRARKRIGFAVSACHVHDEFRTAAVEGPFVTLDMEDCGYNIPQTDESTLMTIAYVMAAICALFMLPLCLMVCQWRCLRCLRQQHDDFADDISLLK

Structure (SMILES)	IC50 (hBACE 1; read-out: hBACE 1 IC50 (μM) ± SD, FRET assay, mean ± SD of three experiments)	IC50 (EeAChE; read-out: eeAChE IC50 (μM) ± SD, Ellman assay, mean ± SD of three experiments)	IC50 (hBACE 1)	IC50 (EeAChE)
[H]/N=C(/N)NN=C(/C=C/c1ccc(F)c(F)c1)c1cccn1Cc1ccc(C(C)(C)C)cc1 [Compound 3f, (Z)-2-((E)-1-(1-(4-(tert-Butyl)benzyl)-1H-pyrrol-2-yl)-3-(3,4-difluorophenyl)allylidene)hydrazine-1-carboximidamide]	135.9 ± 0.71 µM	126.1 ± 0.71 µM		
[H]/N=C(/N)NN=C(/C=C/c1ccc(C(C)(C)C)cc1)c1cccn1Cc1ccc(-c2ccccc2)cc1 [Compound 3g, (Z)-2-((E)-1-(1-([1,1′-Biphenyl]-4-ylmethyl)-1H-pyrrol-2-yl)-3-(4-(tert-butyl)phenyl)allylidene)hydrazine-1-carboximidamide]			185.4 ± 1.84 µM	76.1 ± 0.79 µM
[H]/N=C(/N)NN=C(/C=C/c1ccc(C(C)(C)C)cc1)c1cccn1Cc1ccc(C(F)(F)F)cc1 [Compound 3h, (Z)-2-((E)-3-(4-(tert-Butyl)phenyl)-1-(1-(4-(trifluoromethyl)benzyl)-1H-pyrrol-2-yl)allylidene)hydrazine-1-carboximidamide]			179 ± 2.26 µM	71.17 ± 0.49 µM
[H]/N=C(/N)NN=C(/C=C/c1ccc(C(C)(C)C)cc1)c1cccn1Cc1ccc(Br)cc1 [Compound 3i, (Z)-2-((E)-1-(1-(4-Bromobenzyl)-1H-pyrrol-2-yl)-3-(4-(tert-butyl)phenyl)allylidene)hydrazine-1-carboximidamide]			193 ± 2.12 µM	83.94 ± 0.74 µM
[H]/N=C(/N)NN=C(/C=C/c1cc(OC)cc(OC)c1)c1cccn1Cc1ccc(C(C)(C)C)cc1 [Compound 3j, (Z)-2-((E)-1-(1-(4-(tert-Butyl)benzyl)-1H-pyrrol-2-yl)-3-(3,5-dimethoxyphenyl)allylidene)hydrazine-1-carboximidamide]			177 ± 2.83 µM	69.6 ± 1.51 µM
[H]/N=C(/N)NN=C(/C=C/c1ccc(C(C)(C)C)cc1)c1cccn1Cc1ccc(C(C)(C)C)cc1 [Compound 3k, (Z)-2-((E)-1-(1-(4-(tert-Butyl)benzyl)-1H-pyrrol-2-yl)-3-(4-(tert-butyl)phenyl)allylidene)hydrazine-1-carboximidamide]			178.2 ± 0.92 µM	48.1 ± 0.52 µM
[H]/N=C(/N)NN=C(/C=C/c1ccc(Cl)cc1)c1cccn1Cc1ccc(Br)cc1 [Compound 3l, (Z)-2-((E)-1-(1-(4-Bromobenzyl)-1H-pyrrol-2-yl)-3-(4-chlorophenyl)allylidene)hydrazine-1-carboximidamide]			192.3 ± 1.77 µM	123 ± 3.11 µM
